Test results: patent US20230128402A1 (The Trustees of Princeton University, priority 2020, published 2023)

Columns and labels:
ALDH1a3 [1] = target: T1, ALDH1a3 (Homo sapiens, UniProt P47895); assay: ALDEFLUOR assay in SUM159-M1a-Aldh1a3 cells; format: cell-based; parameters: lentiviral vectors containing either the vector backbone or full-length human Aldh1a3; expressed in transfected cells; host or cells: SUM159-M1a human breast cancer cells, lentiviral pLex vector; settings: for Inhi-bitory Activity at 100 nM (%) / Percent of Cells Positive for ALDEFLUOR ™ at 100 nM: SUM159-M1a-Aldh1a3 cells, compound at 100 nM
T1 sequence (P47895 1-512): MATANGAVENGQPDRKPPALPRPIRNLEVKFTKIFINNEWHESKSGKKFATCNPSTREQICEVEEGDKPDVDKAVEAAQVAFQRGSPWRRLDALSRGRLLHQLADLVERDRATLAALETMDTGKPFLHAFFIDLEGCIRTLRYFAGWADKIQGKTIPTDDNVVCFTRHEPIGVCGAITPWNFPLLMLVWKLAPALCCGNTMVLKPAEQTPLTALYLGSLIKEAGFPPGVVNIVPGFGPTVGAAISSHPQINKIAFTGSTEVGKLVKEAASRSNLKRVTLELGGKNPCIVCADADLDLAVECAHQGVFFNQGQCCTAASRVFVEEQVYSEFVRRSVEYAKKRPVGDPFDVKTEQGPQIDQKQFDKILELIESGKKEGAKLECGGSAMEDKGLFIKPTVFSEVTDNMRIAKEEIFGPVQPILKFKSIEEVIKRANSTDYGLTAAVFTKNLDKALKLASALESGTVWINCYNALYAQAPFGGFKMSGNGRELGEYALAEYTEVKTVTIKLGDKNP
Procedure: (§1) Cells were counted, centrifuged and resuspended at 1,000,000 cells/mL in ALDEFLUOR™ buffer (Stemcell Technologies). ALDEFLUOR™ substrate (Stemcell Technologies, 1:200) and test compound or 1 mM DEAB were added to cell suspension and incubated at 37° C. for 45 minutes with vortexing every 15 minutes. Cells were centrifuged and resuspended in ALDEFLUOR™ buffer with DAPI at 5 μg/mL. Samples were analyzed with the BD LSR2 flow cytometry platform. Gating was performed using DEAB as a negative control.
Gating for background fluorescence was performed using 1 millimolar DEAB as a negative control.
The [inh-min]threshold was set at the lower bound of two standard deviations of control samples, while the IC50 threshold was set at 50% of the average of control samples.
An ALDEFLUOR™ assay was also used to assess the relative activity of several compounds described herein against SUM159-M1a-Aldh1a3 cells.

ALDH1a3 [2] = target: T1, ALDH1a3; assay: Aldh1a3 enzyme inhibition assay, recombinant hALDH1a3; format: biochemical; parameters: made in house; host or cells: E. coli BL21-DE3, pET-Aldh1a3; settings: resorufin fluorescence, 20° C.
Source text: (§2) Recombinant enzyme and inhibitor added immediately before assay. Reaction rate measured by resorufin fluorescence.

[3] = test system: ALDH isoforms 1a1, 1a2, 1a3 and 3a1; format: cell-based, human
Procedure: The coding sequences of Aldh1a1, Aldh1a2, Aldh1a3 and Aldh3a1 were cloned from cDNA made from pooled human reference RNA samples. Cloned sequences flanked by Age1 and Xho1 restriction sites were inserted into the pLex lentiviral plasmid. Clones were sequenced and compared against NCBI expressed sequence tags ([…]) for accuracy. […]. Viruses were collected and filtered at 0.45 um, then cells were transduced using polybrene (8 μg/mL) for 12 hours, followed by culture with 1 μg/mL puromycin for the duration of experiments. All viral transduction and selection was performed on a cell population-wide basis.
as §1
ALDH isoforms 1a1, 1a2, 1a3 and 3a1 were expressed in MCF7 or SUM159 cells, which were subsequently used in an ALDEFLUOR™ assay.

mALDH1a3 = target: T2, mALDH1a3 (Mus musculus, UniProt Q9JHW9); assay: Aldh1a3 enzyme inhibition assay, recombinant mALDH1a3; format: biochemical; settings: resorufin fluorescence, 20° C.
T2 construct: made in house; host or cells: E. coli BL21-DE3, pET-Aldh1a3
T2 sequence (Q9JHW9 1-512): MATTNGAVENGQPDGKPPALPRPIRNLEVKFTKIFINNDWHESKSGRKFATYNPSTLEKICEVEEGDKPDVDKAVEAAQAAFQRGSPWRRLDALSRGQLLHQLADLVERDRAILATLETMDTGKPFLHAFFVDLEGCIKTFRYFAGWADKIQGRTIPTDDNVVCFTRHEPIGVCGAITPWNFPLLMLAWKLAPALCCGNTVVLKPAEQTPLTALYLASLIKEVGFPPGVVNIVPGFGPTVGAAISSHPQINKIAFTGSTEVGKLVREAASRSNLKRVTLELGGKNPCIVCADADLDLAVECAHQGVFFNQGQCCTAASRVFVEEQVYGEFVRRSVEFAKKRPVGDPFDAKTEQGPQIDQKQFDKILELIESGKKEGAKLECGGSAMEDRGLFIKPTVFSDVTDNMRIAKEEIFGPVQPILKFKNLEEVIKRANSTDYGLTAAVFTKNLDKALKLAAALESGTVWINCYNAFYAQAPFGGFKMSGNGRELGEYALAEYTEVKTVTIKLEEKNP
Source text: as §2

Compound: 2-ethyl-N-(7-fluoro-2-oxo-3,4-dihydro-1H-quinolin-6-yl)benzamide [Compound 4]
- Inhi-bitory Activity at 100 nM (%) (ALDH1a3 [1]): 100%
- Percent of Cells Positive for ALDEFLUOR ™ at 100 nM (ALDH1a3 [1]): 0.03%
- IC50 (ALDH1a3 [2]): < 0.1 µM
- ALDH isoform specificity, ALDEFLUOR-positive cells [3]: specifically inhibits ALDH1a3 at concentrations below 10 μM
- IC50 (mALDH1a3): 0.1 to 0.25 µM

Compound: 3-ethyl-N-(2-oxo-3,4-dihydro-1H-quinolin-6-yl)pyridine-4-carboxamide [Compound 9]
- Inhi-bitory Activity at 100 nM (%) (ALDH1a3 [1]): 83%
- Percent of Cells Positive for ALDEFLUOR ™ at 100 nM (ALDH1a3 [1]): 13%
- IC50 (ALDH1a3 [2]): < 0.1 µM
- IC50 (mALDH1a3): 0.25 to 1 µM

Compound: O=C1CCc2cc(NC(=O)c3ccncc3)c(F)cc2N1 [Compound 2]
- Inhi-bitory Activity at 100 nM (%) (ALDH1a3 [1]): 8%
- Percent of Cells Positive for ALDEFLUOR ™ at 100 nM (ALDH1a3 [1]): 70%
- IC50 (ALDH1a3 [2]): > 5 µM
- IC50 (mALDH1a3): > 5 µM

Compound: CCc1cnccc1CNc1cc2c(cc1F)NC(=O)CC2 [Compound 3]
- Inhi-bitory Activity at 100 nM (%) (ALDH1a3 [1]): 55%
- Percent of Cells Positive for ALDEFLUOR ™ at 100 nM (ALDH1a3 [1]): 34%
- IC50 (ALDH1a3 [2]): 1 to 5 µM
- IC50 (mALDH1a3): 1 to 5 µM

Compound: CC(C)Cc1cnccc1C(=O)Nc1cc2c(cc1F)NC(=O)CC2 [Compound 7]
- relative potency, ALDEFLUOR activity (ALDH1a3 [1]; 10 nM, FIG. 6C): nearly twice as potent as MBE 1.5
- IC50 (ALDH1a3 [2]): < 0.1 µM
- IC50 (mALDH1a3): 0.1 to 0.25 µM

Compound: CCc1cnccc1C(=O)Nc1ccc2c(c1)CCC(=O)N2 [Compound 9, 3-ethyl-N-(2-oxo-3,4-dihydro-1H-quinolin-6-yl)pyridine-4-carboxamide]
- inhibition of ALDH1a3 activity (percentage of ALDEFLUOR-positive cells) (ALDH1a3 [1]; 100 nM, FIG. 6A): high-affinity compounds for the inhibition of ALDH1a3 activity

Compound: Cc1ccc(C)c(CNc2ccc3c(c2)CCC(=O)N3)c1 [Compound 10]
- Inhi-bitory Activity at 100 nM (%) (ALDH1a3 [1]): 45%
- Percent of Cells Positive for ALDEFLUOR ™ at 100 nM (ALDH1a3 [1]): 42%
- IC50 (ALDH1a3 [2]): 1 to 5 µM
- IC50 (mALDH1a3): 1 to 5 µM

Compound: Cc1ccc(C(=O)Nc2ccc3c(c2)CCC(=O)N3)cc1C [Compound 11]
- Inhi-bitory Activity at 100 nM (%) (ALDH1a3 [1]): 0.60%
- Percent of Cells Positive for ALDEFLUOR ™ at 100 nM (ALDH1a3 [1]): 76%
- IC50 (ALDH1a3 [2]): > 5 µM
- IC50 (mALDH1a3): > 5 µM

Compound: Cc1ccc(C(=O)Nc2ccc3c(c2)CCC(=O)N3)c(C)c1 [Compound 12]
- Inhi-bitory Activity at 100 nM (%) (ALDH1a3 [1]): 3.3%
- Percent of Cells Positive for ALDEFLUOR ™ at 100 nM (ALDH1a3 [1]): 74%
- IC50 (ALDH1a3 [2]): > 5 µM
- IC50 (mALDH1a3): > 5 µM

Compound: Cc1ccccc1C(=O)Nc1ccc2c(c1)CCC(=O)N2 [Compound 13]
- Inhi-bitory Activity at 100 nM (%) (ALDH1a3 [1]): 42%
- Percent of Cells Positive for ALDEFLUOR ™ at 100 nM (ALDH1a3 [1]): 45%
- IC50 (ALDH1a3 [2]): > 5 µM
- IC50 (mALDH1a3): 1 to 5 µM

Compound: O=C1CCc2cc(NCc3ccccc3)ccc2N1 [Compound 14]
- Inhi-bitory Activity at 100 nM (%) (ALDH1a3 [1]): 11%
- Percent of Cells Positive for ALDEFLUOR ™ at 100 nM (ALDH1a3 [1]): 68%
- IC50 (ALDH1a3 [2]): > 5 µM
- IC50 (mALDH1a3): > 5 µM

Compound: Cc1cnccc1C(=O)Nc1cc2c(cc1F)NC(=O)CC2 [Compound 15]
- Inhi-bitory Activity at 100 nM (%) (ALDH1a3 [1]): 18%
- Percent of Cells Positive for ALDEFLUOR ™ at 100 nM (ALDH1a3 [1]): 63%
- IC50 (ALDH1a3 [2]): > 5 µM
- IC50 (mALDH1a3): > 5 µM

Compound: Cc1cc(C(=O)Nc2cc3c(cc2F)NC(=O)CC3)ccn1 [Compound 16]
- Inhi-bitory Activity at 100 nM (%) (ALDH1a3 [1]): 29%
- Percent of Cells Positive for ALDEFLUOR ™ at 100 nM (ALDH1a3 [1]): 55%
- IC50 (ALDH1a3 [2]): > 5 µM
- IC50 (mALDH1a3): > 5 µM

Compound: O=C1CCc2cc(NCc3cc[nH]c3)c(F)cc2N1 [Compound 17]
- Inhi-bitory Activity at 100 nM (%) (ALDH1a3 [1]): 2%
- Percent of Cells Positive for ALDEFLUOR ™ at 100 nM (ALDH1a3 [1]): 75%
- IC50 (ALDH1a3 [2]): > 5 µM
- IC50 (mALDH1a3): > 5 µM

Compound: CC1(C)Cc2cc(Nc3ccc4c(n3)CCCC4=O)ccc2NC1=O [Compound 127, 3,3-dimethyl-6-[(5-oxo-7,8-dihydro-6H-quinolin-2-yl)amino]-1,4-dihydroquinolin-2-one]
- IC50 (ALDH1a3 [2]): 1 to 5 µM
- IC50 (mALDH1a3): > 5 µM

Compound: Cc1nc(Nc2ccc3c(c2)CC(C)(C)C(=O)N3)nc2ccccc12 [Compound 132, 3,3-dimethyl-6-[(4-methylquinazolin-2-yl)amino]-1,4-dihydroquinolin-2-one]
- IC50 (ALDH1a3 [2]): 0.25 to 1 µM
- IC50 (mALDH1a3): 0.25 to 1 µM

Compound: Cc1cc2ccccc2nc1Nc1ccc2c(c1)CC(C)(C)C(=O)N2 [Compound 134]
- IC50 (ALDH1a3 [2]): 0.25 to 1 µM
- IC50 (mALDH1a3): 0.25 to 1 µM

Compound: CC1(C)Cc2cc(Nc3c[nH]c4c(c3=O)CCCC4)ccc2NC1=O [Compound 135, 3,3-dimethyl-6-[(4-oxo-5,6,7,8-tetrahydro-1H-quinolin-3-yl)amino]-1,4-dihydroquinolin-2-one]
- IC50 (ALDH1a3 [2]): > 5 µM
- IC50 (mALDH1a3): > 5 µM

Compound: CCc1cnccc1C(=O)Nc1ccc2c(c1)C(F)(F)C(=O)N2 [Compound 136]
- IC50 (ALDH1a3 [2]): 1 to 5 µM
- IC50 (mALDH1a3): > 5 µM

Compound: CCc1cnccc1C(=O)Nc1ccc2c(c1)C(C)(C)C(=O)N2 [Compound 137]
- IC50 (ALDH1a3 [2]): > 5 µM
- IC50 (mALDH1a3): > 5 µM
